Experimental data from patent US20240190880A1 (THE REGENTS OF THE UNIVERSITY OF MICHIGAN, priority 2021, published 2024).
Read-outs that look alike come from different tables or passages of the source.

Target: T1, ER (Homo sapiens, UniProt P03372)
T1 construct: host or cells: T47D and MCF7 human breast cancer cells
T1 sequence (P03372 1-595): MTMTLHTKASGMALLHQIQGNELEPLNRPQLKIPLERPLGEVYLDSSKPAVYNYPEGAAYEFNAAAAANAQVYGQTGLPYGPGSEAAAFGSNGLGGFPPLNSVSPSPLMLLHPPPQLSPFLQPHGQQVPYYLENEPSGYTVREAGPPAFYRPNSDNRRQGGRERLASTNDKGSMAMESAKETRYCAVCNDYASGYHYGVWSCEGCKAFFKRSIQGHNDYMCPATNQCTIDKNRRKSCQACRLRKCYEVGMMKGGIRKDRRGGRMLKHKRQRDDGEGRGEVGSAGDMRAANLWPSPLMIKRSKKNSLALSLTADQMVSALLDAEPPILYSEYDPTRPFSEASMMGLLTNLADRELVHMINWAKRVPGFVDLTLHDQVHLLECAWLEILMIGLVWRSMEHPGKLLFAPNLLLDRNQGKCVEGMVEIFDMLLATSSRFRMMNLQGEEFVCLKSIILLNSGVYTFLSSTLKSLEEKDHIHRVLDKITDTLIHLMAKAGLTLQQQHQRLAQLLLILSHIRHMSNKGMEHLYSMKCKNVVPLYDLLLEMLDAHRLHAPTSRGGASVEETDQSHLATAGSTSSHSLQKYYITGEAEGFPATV
Test: ER degradation activity, in-cell western blot analysis in T47D cells
Format: cell-based
Summary of the method: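 Read-out is near-infrared fluorescence from an in-cell western, expressed as ER percentage relative to untreated and DMSO controls taken as 100%. T47D breast cancer cells received compound for 16 h in 0.5% DMSO.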

[1] = 16 hours, Table A does not say which cell line (T47D or MCF7), read-out: Potency (DC50)
[2] = compounds 16 hours, Table A does not say whether T47D or MCF7, read-out: Potency (DC50)

| SMILES | DC50 [1] [nM] | DC50 [2] [nM] |
| --- | --- | --- |
| O=C1CCC(N2C(=O)c3cc4c(cc3C2=O)CN(C(=O)C2CCN(CC3CN(c5ccc([C@@H]6c7ccc(O)cc7CC[C@@H]6c6ccccc6)cc5)C3)CC2)C4)C(=O)N1 (stereo partly drawn) [E 295, 2-(2,6-dioxopiperidin-3-yl)-6-(1-((1-(4-((1R,2S)-6-hydroxy-2-phenyl-1,2,3,4-tetrahydronaphthalen-1-yl)phenyl)azetidin-3-yl)methyl)piperidine-4-carbonyl)-6,7-dihydropyrrolo[3,4-f]isoindole-1,3(2H,5H)-dione] | > 100 | – |
| O=C1CCC(N2C(=O)c3cc4c(cc3C2=O)CN(CC(=O)N2CC3(CCN(c5ccc([C@@H]6c7ccc(O)cc7CC[C@@H]6c6ccccc6)cc5)CC3)C2)C4)C(=O)N1 (stereo partly drawn) [E 148, 2-(2,6-dioxopiperidin-3-yl)-6-(2-(7-(4-((1R,2S)-6-hydroxy-2-phenyl-1,2,3,4-tetrahydronaphthalen-1-yl)phenyl)-2,7-diazaspiro[3.5]nonan-2-yl)-2-oxoethyl)-6,7-dihydropyrrolo[3,4-f]isoindole-1,3(2H,5H)-dione] | < 10 | – |
| C[C@@H]1Cc2c([nH]c3ccccc23)[C@@H](c2cnc(N3CCC(CN4CCC(N5Cc6cc7c(cc6C5)C(=O)N(C5CCC(=O)NC5=O)C7=O)CC4)CC3)nc2)N1CC(F)(F)F (stereo partly drawn) [E 256, 2-(2,6-dioxopiperidin-3-yl)-6-(1-((1-(5-((1R,3R)-3-methyl-2-(2,2,2-trifluoroethyl)-2,3,4,9-tetrahydro-1H-pyrido[3,4-b]indol-1-yl)pyrimidin-2-yl)piperidin-4-yl)methyl)piperidin-4-yl)-6,7-dihydropyrrolo[3,4-f]isoindole-1,3(2H,5H)-dione] | 10 to 100 | – |
| C[C@@H]1Cc2c([nH]c3ccccc23)[C@@H](c2cnc(N3CCC4(CC3)CC(CN3Cc5cc6c(cc5C3)C(=O)N(C3CCC(=O)NC3=O)C6=O)C4)nc2)N1CC(C)(C)F (stereo partly drawn) [E 473, 2-(2,6-dioxopiperidin-3-yl)-6-((7-(5-((1R,3R)-2-(2-fluoro-2-methylpropyl)-3-methyl-2,3,4,9-tetrahydro-1H-pyrido[3,4-b]indol-1-yl)pyrimidin-2-yl)-7-azaspiro[3.5]nonan-2-yl)methyl)-6,7-dihydropyrrolo[3,4-f]isoindole-1,3(2H,5H)-dione] | – | 10 to 100 |
| O=C1CCC(N2C(=O)c3cc4c(cc3C2=O)CN(CC(=O)N2CCC3(CC2)CCN(c2ccc(C(=C(CCCl)c5ccc(F)cc5)c5ccc(O)cc5)cc2)CC3)C4)C(=O)N1 (stereo not shown) [E 196, 6-(2-(9-(4-(4-chloro-2-(4-fluorophenyl)-1-(4-hydroxyphenyl)but-1-en-1-yl)phenyl)-3,9-diazaspiro[5.5]undecan-3-yl)-2-oxoethyl)-2-(2,6-dioxopiperidin-3-yl)-6,7-dihydropyrrolo[3,4-f]isoindole-1,3(2H,5H)-dione] | 10 to 100 | – |
| COc1cc([C@H]2CC[C@H](C(=O)N3CCC(N4Cc5cc6c(cc5C4)C(=O)N(C4CCC(=O)NC4=O)C6=O)CC3)CC2)ccc1[C@@H]1c2[nH]c3ccccc3c2C[C@@H](C)N1CC(F)F (stereo partly drawn) [E 403, 6-(1-((1R,4r)-4-(4-((1R,3R)-2-(2,2-difluoroethyl)-3-methyl-2,3,4,9-tetrahydro-1H-pyrido[3,4-b]indol-1-yl)-3-methoxyphenyl)cyclohexane-1-carbonyl)piperidin-4-yl)-2-(2,6-dioxopiperidin-3-yl)-6,7-dihydropyrrolo[3,4-f]isoindole-1,3(2H,5H)-dione] | – | 10 to 100 |
| O=C1CCC(N2C(=O)c3cc4c(cc3C2=O)CN(CC(=O)N2CCC3(CC2)CCN(c2ccc([C@@H]5c6ccc(O)cc6CC[C@@H]5c5ccc(F)cc5)cc2)CC3)CC4)C(=O)N1 (mixture of isomers) [E 165, rac-2-(2,6-dioxopiperidin-3-yl)-6-(2-(9-(4-((1R,2S)-2-(4-fluorophenyl)-6-hydroxy-1,2,3,4-tetrahydronaphthalen-1-yl)phenyl)-3,9-diazaspiro[5.5]undecan-3-yl)-2-oxoethyl)-5,6,7,8-tetrahydro-1H-pyrrolo[3,4-g]isoquinoline-1,3(2H)-dione] | 10 to 100 | – |
| C[C@@H]1Cc2c([nH]c3ccccc23)[C@@H](c2c(F)cc(N3CC(C(=O)N4CCC(N5Cc6cc7c(cc6C5)C(=O)N(C5CCC(=O)NC5=O)C7=O)CC4)C3)cc2F)N1CC(F)F (stereo partly drawn) [E 122, 6-(1-(1-(4-((1R,3R)-2-(2,2-difluoroethyl)-3-methyl-2,3,4,9-tetrahydro-1H-pyrido[3,4-b]indol-1-yl)-3,5-difluorophenyl)azetidine-3-carbonyl)piperidin-4-yl)-2-(2,6-dioxopiperidin-3-yl)-6,7-dihydropyrrolo[3,4-f]isoindole-1,3(2H,5H)-dione] | < 10 | – |
| O=C1CCC(N2C(=O)c3cc4c(cc3C2=O)CN(CC(=O)N2CCC3(CC2)CCN(c2ccc([C@@H]5c6ccc(O)cc6CCC56CCCC6)cc2)CC3)C4)C(=O)N1 (mixture of isomers) [E 179, Rac-2-(2,6-dioxopiperidin-3-yl)-6-(2-(9-(4-((R)-6′-hydroxy-3′,4′-dihydro-1′H-spiro[cyclopentane-1,2′-naphthalen]-1′-yl)phenyl)-3,9-diazaspiro[5.5]undecan-3-yl)-2-oxoethyl)-6,7-dihydropyrrolo[3,4-f]isoindole-1,3(2H,5H)-dione] | 10 to 100 | – |
| C[C@@H]1Cc2c([nH]c3ccccc23)[C@@H](c2c(F)cc(N3CCC4(CC3)CN(CC3Cc5cc6c(cc5C3)C(=O)N(C3CCC(=O)NC3=O)C6=O)C4)cc2F)N1CC(F)F (stereo partly drawn) [E 232, 6-((7-(4-((1R,3R)-2-(2,2-difluoroethyl)-3-methyl-2,3,4,9-tetrahydro-1H-pyrido[3,4-b]indol-1-yl)-3,5-difluorophenyl)-2,7-diazaspiro[3.5]nonan-2-yl)methyl)-2-(2,6-dioxopiperidin-3-yl)-6,7-dihydrocyclopenta[f]isoindole-1,3(2H,5H)-dione] | > 100 | – |
| C[C@@H]1Cc2c([nH]c3ccccc23)[C@@H](c2c(F)cc(C3CCC(CN4CCC(N5Cc6cc7c(cc6C5)C(=O)N(C5CCC(=O)NC5=O)C7)CC4)CC3)cc2F)N1CC(F)F (stereo partly drawn) [E 308, 3-(6-(1-((4-(4-((1R,3R)-2-(2,2-difluoroethyl)-3-methyl-2,3,4,9-tetrahydro-1H-pyrido[3,4-b]indol-1-yl)-3,5-difluorophenyl)cyclohexyl)methyl)piperidin-4-yl)-1-oxo-3,5,6,7-tetrahydropyrrolo[3,4-f]isoindol-2(1H)-yl)piperidine-2,6-dione] | 10 to 100 | – |
| C[C@@H]1Cc2cc(O)ccc2[C@@H](c2c(F)cc(C3CCC4(CC3)CCN(C(=O)CN3Cc5cc6c(cc5C3)C(=O)N(C3CCC(=O)NC3=O)C6=O)CC4)cc2F)N1CC(F)F (stereo partly drawn) [E 447, 6-(2-(9-(4-((1S,3R)-2-(2,2-difluoroethyl)-6-hydroxy-3-methyl-1,2,3,4-tetrahydroisoquinolin-1-yl)-3,5-difluorophenyl)-3-azaspiro[5.5]undecan-3-yl)-2-oxoethyl)-2-(2,6-dioxopiperidin-3-yl)-6,7-dihydropyrrolo[3,4-f]isoindole-1,3(2H,5H)-dione] | – | > 100 |
| O=C1CCC(N2C(=O)c3cc4c(cc3C2=O)CN(Cc2ccc(N3CCN(c5ccc([C@@H]6c7ccc(O)cc7CC[C@@H]6c6ccccc6)cc5)CC3)nc2)C4)C(=O)N1 (stereo partly drawn) [E 311, 2-(2,6-dioxopiperidin-3-yl)-6-((6-(4-(4-((1R,2S)-6-hydroxy-2-phenyl-1,2,3,4-tetrahydronaphthalen-1-yl)phenyl)piperazin-1-yl)pyridin-3-yl)methyl)-6,7-dihydropyrrolo[3,4-f]isoindole-1,3(2H,5H)-dione] | > 100 | – |
| O=C1CCC(N2C(=O)c3cc4c(cc3C2=O)CN(CC2CC3(CCN(C(=O)c5ccc([C@@H]6c7ccc(O)cc7CC[C@@H]6c6ccccc6)cc5)CC3)C2)C4)C(=O)N1 (stereo partly drawn) [E 494, 2-(2,6-dioxopiperidin-3-yl)-6-((7-(4-((1R,2S)-6-hydroxy-2-phenyl-1,2,3,4-tetrahydronaphthalen-1-yl)benzoyl)-7-azaspiro[3.5]nonan-2-yl)methyl)-6,7-dihydropyrrolo[3,4-f]isoindole-1,3(2H,5H)-dione] | – | > 100 |
| CN(C1CCN(c2ccc([C@@H]3c4ccc(O)cc4CC[C@@H]3c3ccccc3)cc2)CC1)N1CCC(C(=O)N2Cc3cc4c(cc3C2)C(=O)N(C2CCC(=O)NC2=O)C4=O)CC1 (mixture of isomers) [E 287, 2-(2,6-dioxopiperidin-3-yl)-6-(1-((1-(4-((1R,2S)-6-hydroxy-2-phenyl-1,2,3,4-tetrahydronaphthalen-1-yl)phenyl)piperidin-4-yl)(methyl)amino)piperidine-4-carbonyl)-6,7-dihydropyrrolo[3,4-f]isoindole-1,3(2H,5H)-dione] | 10 to 100 | – |
| O=C1CCC(N2C(=O)c3cc4c(cc3C2=O)CN(CC2CN(C(=O)C3CN(c5ccc([C@@H]6c7ccc(O)cc7CC[C@@H]6c6ccccc6)cc5)C3)C2)C4)C(=O)N1 (stereo partly drawn) [E 200, 2-(2,6-dioxopiperidin-3-yl)-6-((1-(1-(4-((1R,2S)-6-hydroxy-2-phenyl-1,2,3,4-tetrahydronaphthalen-1-yl)phenyl)azetidine-3-carbonyl)azetidin-3-yl)methyl)-6,7-dihydropyrrolo[3,4-f]isoindole-1,3(2H,5H)-dione] | > 100 | – |
